Measurements as given in patent publication US5622944A, “Testosterone prodrugs for improved drug delivery” (Affymax Technologies N.V., priority 1995, dated 1997).
Counter-ions that a name gives are not always drawn.

Tests used:
[1] = Water solubility (H2O sol); conditions: H2O sol
in vitro [2] = format: in vitro ADME; conditions: 37° C.; for half-life: human, serum
Procedure: The hydrolytic activity of the sterol prodrug may be evaluated by studies of the chemical or enzymatic conversion of the prodrug to the unmodified parent compound, as described in Example 26.
Generally, the sterol/chemical modifier complex is dissolved in a minimum amount of a suitable solvent, such as ethanol, and the resulting solution is added to a sample of human serum. Following incubation, aliquots are then removed at various time points and analyzed to determine the extent of hydrolysis. Table I herein lists the representative serum half-lives of a number of testosterone prodrugs according to the present invention.
The rates of conversion are readily determined, for example by spectrophotometric methods or by gas-liquid or high performance liquid chromatography. Half-lives and other kinetic parameters may then be calculated using standard techniques.
Determination of Testosterone Prodrug Hydrolysis in Serum
Stock solutions (6 mM) of the testosterone prodrugs were prepared in ethanol (dissolution was accomplished by vortexing, sonication, or warming at 37° C., as needed). If required for dissolution, one drop of a co-solvent such as dimethylsulfoxide, dimethylformamide or methanol was added. (Acetonitrile is undesirable because it deactivates the serum enzymes).
HPLC separation methods were established for each study by dilution of the above stock solutions (6 μl) in acetonitrile (1 ml) to form 36 μM solutions. Samples (10 μl) were injected onto a Nucleosil 5C8 column (250×4 mm ID) fitted with an additional guard column (11×4 mm ID) and eluted with a mobile phase of approximately 65% HPLC grade water and 35% trifluoroacetic acid in acetonitrile (0.1% TFA in acetonitrile). Exact proportions of the mobile phase eluents were adjusted in each case to give optimum separation and run times.
Freshly defrosted human serum (3 ml, Sigma) was warmed at 37° C. for five minutes and then the testosterone prodrug stock solution (60 μl) was added with vortexing. […] The aliquots were added to 800 μl of 2% zinc sulfate solution in a 1.5 ml disposable microcentrifuge tube, vortexed immediately and centrifuged at 14,000 RPM for 3 minutes. The supernatants (10 μl) were injected onto the HPLC and peak areas used to determine the percent of parent drug formed or percent of prodrug remaining. Serum blanks were prepared similarly by addition of serum to the zinc sulfate solution, followed by centrifugation. Initial (time=0) samples were prepared by adding serum to the zinc sulfate solution, followed by addition of the complex and separation by centrifugation. The time=0 samples, as well as the original stock solutions, were also used to assess the stability of the complex in the absence of enzyme. Half-lives were determined using the following equation : […]
and plotting time (x ordinate) versus the natural logarithm of percent remaining prodrug (y ordinate) to obtain the slope (m) and the y intercept (b).

[3] = format: in vitro ADME, mouse; conditions: for Enhancement in in vitro electrotransport skin flux compared to testosterone: hairless mouse skin, vs unmodified testosterone, 'nearly 10-fold enhancement or greater'; for Flux, active electrotransport (ET): active cells (ETm), 100 uA/cm^2, 6 h
Procedure: In vitro electrotransport of testosterone/chemical modifier complexes across hairless mouse skin was evaluated as described in Example 28. The experiments were conducted using modified Valia-Chien cells having 1.0 ml donor and 2.5 ml receptor cells. Anodic transport was carried out using a silver wire-based salt bridge in the donor compartment and a silver chloride cathode in the receptor. Cathodic transport was effected by reversing the electrode configuration. The cells were connected in series and a constant current and temperature were supplied to each cell.
After a predetermined period of time (6 h), aliquots were removed from the receiver phase for immediate analysis by HPLC to determine cumulative flux.
The electrotransport of testosterone/chemical modifier complexes was achieved using modified Valia-Chien cells (1.0 ml donor and 2.5 ml receptor cells). Full thickness, hairless mouse skin (Charles River Labs, Wilmington, Mass.) was soaked for one hour in phosphate buffered saline (PBS, pH=7.4) before placing between each compartment (dermal side of skin facing toward receptor). One passive (P1:data) and two or more (ETm :data) active cells were used to screen each compound.
A 10 mM (1 ml) aqueous solution of testosterone drug/prodrug was placed in the donor (unstirred) compartment and the receptor (stirred) was filled with 2.5 ml of PBS. In order to check for egress due to e.g. damaged skin, a zero hour sample of receptor ([…]) was taken one half hour after the drug solution was placed in the donor compartment. Replacement fluid of equal sample volume was added to the receptor compartment immediately after samples were taken.
Anodic electrotransport was achieved using a silver wire (immersed in a polyvinylalcohol-based salt bridge to minimize junction potential) in the donor compartment and a AgCl cathode in the receptor. […] The electrotransport cells were connected in series and constant current (100 uA/cm^2, […] for a skin area of 0.64 cm^2) and temperature (32° C.) were supplied to each cell. After six hours of active/passive transport, aliquots (200 ul) of the receptor were sampled and immediately analyzed by HPLC.
A standard plot of peak area and concentration for each compound was constructed using HPLC. The peak areas of the samples were determined and the concentrations calculated using the standard data. Cumulative flux was calculated using Quickbasic and reported in nmol/cm^2 /hr.

[4] = Steady state flux across human skin (iontophoretic); format: in vitro ADME
Procedure: Another useful factor for in vitro assessment of skin permeability of a target drug or drug complex is steady state flux. Typically, when performing a kinetic analysis of the skin-penetrating ability of a target compound through a membrane, such as skin, such an analysis includes an assessment of the lag time and the steady state flux or permeation rate. The ideal membrane for such determinations is human skin.
Steady state flux across human skin was determined for three distinct testosterone/chemical modifier complexes, as shown in FIG. 5 and in Table 4. In FIG. 5, iontophoretic flux rates over time are plotted for testosterone-17β-stachydrine ester, chloride salt [2.9], (closed circles), testosterone-17β-(L-carnitine ethyl ester) carbonate, iodide salt [1.7] (solid squares), and testosterone-17β-choline carbonate, bromide salt [1.4] (open circles). […] Steady state flux values in FIG. 5 are expressed as testosterone equivalents in units of μg/cm^2 h.
Iontophoretically-induced steady state flux across human skin was determined for three distinct testosterone/chemical modifier complexes, testosterone-17β-stachydrine ester, chloride salt [2.9], testosterone-17β-(L-carnitine ethyl ester) carbonate, iodide salt [1.7], and testosterone-17β-choline carbonate, bromide salt [1.4]. The in vitro skin flux experiments were carried out in a similar fashion to those described above, with the exception that human skin was used as the membrane.
Steady state flux values provide an indication of the total amount of drug (or drug complex) that can penetrate the skin, under a given set of experimental conditions.

in vitro [5] = format: cell-based, human; conditions: human, dermal fibroblasts, MTT; for CC50 at 2 h: IC50 2 h (cytotoxicity), 2 h incubation; for CC50 at 16 h: IC50 16 h (cytotoxicity), 16 h incubation
Procedure: As discussed above, the chemical modifier, when present in the subject in its free or released form, and in appropriately administered amounts, should preferably be non-toxic. Additionally, any further in vivo degradation products of the chemical modifier should be non-toxic, as well. Table 2 provides in vitro relative cytotoxicity data for a number of testosterone/chemical modifier complexes, prepared in accordance with the invention. The cytotoxicity assessment was carried out by examining the viability of human dermal fibroblasts in the presence of a number of testosterone/chemical modifier complexes in accordance with the present invention. Details of the experimental protocol are summarized in Example 27.
The viability of human dermal fibroblasts in the presence of the 17-hydroxy sterol/chemical modifier compounds was assayed using MTT (3-[4,5-dimethylthiazol-2-yl]-2,5-diphenyltetrazolium bromide) reduction to formazan by mitochondrial enzymes as an indicator of cytotoxicity (Swisher, et al.). Confluent fibroblast cells were incubated for 2 or 16 hours in the presence of increasing concentrations of drug complex. At the end of the incubation period, medium was replaced for 4 hours by medium containing the tetrazolium salt, MTT. Metabolism of MTT to a blue formazan was quantitated by spectrophotometry at 540 nm.

[6] = murine skin, 10 mM donor, 32° C.

Compound | Degradation (Degradation (%/d)) [%/d] | solubility [1] [mg/mL] | half-life (in vitro [2]; HPLC) [h] | Enhancement in in vitro electrotransport skin flux compared to testosterone [3] [fold] | Flux, active electrotransport (ET) [3, 6] [nmol/cm^2 /hr] | Flux, passive (P) ([3]; murine skin, passive cells (P), 10 mM donor, 6 h, 32° C.) [nmol/cm^2 /hr] | Steady State Flux ([4]; iontophoresis (Table 4)) [nmole/cm^2 /h] | CC50 at 2 h (in vitro [5]) [µM] | CC50 at 16 h (in vitro [5]) [µM] | half-life (in vitro [2]; footnote 1: prodrug remaining, no testosterone formed) [h] | Steady State Flux ([4]; iontophoresis) [nmol/cm^2 /h] | Steady state flux compared with the other two complexes (1.4, 1.7) ([4]; iontophoresis) | Serum half-life (in vitro [2]; human serum, HPLC, hydrochloride salt) [h]
C[C@]12CC[C@H]3[C@@H](CCC4=CC(=O)CC[C@@]43C)[C@@H]1CC[C@@H]2OC(=O)OCC[N+](C)(C)C [Code 1.4, testosterone-17β-choline carbonate, bromide salt] | 0 | 4 | 0.4 | ≥ 10 | 20.8 ± 21.0 | 4.0 ± 0.8 | 68 ± 4 | 966 | 929 | – | – | – | –
C[C@]12CC[C@H]3[C@@H](CCC4=CC(=O)CC[C@@]43C)[C@@H]1CC[C@@H]2OC(=O)CCCC[N+](C)(C)C [Code 2.4] | 0 | 18 | ~720 | – | 2.7 ± 1.1 | – | – | 609 | 568 | – | – | – | –
C[C@]12CC[C@H]3[C@@H](CCC4=CC(=O)CC[C@@]43C)[C@@H]1CC[C@@H]2OC(=O)CC[N+](C)(C)C [Code 2.5, testosterone-17β-(N,N,N-trimethyl-β-alaninyl ester), bromide salt] | 0 | 0.3 | – | ≥ 10 | 18.0 ± 2.4 | – | – | > 600 | 329 | ~0.167 | – | – | –
CC(=O)O[C@@H]1C[C@@H](C(=O)O[C@H]2CC[C@H]3[C@@H]4CCC5=CC(=O)CC[C@]5(C)[C@H]4CC[C@]23C)[N+](C)(C)C1 [Code 2.6, testosterone-17β-[(O-acetyl)-betonicinyl ester], chloride salt] | 0 | 21 | 8.2 | – | 0 | – | – | 733 | 271 | – | – | – | –
C[n+]1cccc(C(=O)O[C@H]2CC[C@H]3[C@@H]4CCC5=CC(=O)CC[C@]5(C)[C@H]4CC[C@]23C)c1 [Code 2.8] | 0 | 0.8 | 25.5 | – | 3.1 ± 1.2 | – | – | 598 | 492 | – | – | – | –
C[C@]12CC[C@H]3[C@@H](CCC4=CC(=O)CC[C@@]43C)[C@@H]1CC[C@@H]2OC(=O)[C@@H]1CCC[N+]1(C)C [Code 2.9, testosterone-17β-stachydrine ester, chloride salt] | 0 | 22 | 13.7 | – | – | – | 184 ± 30 | 2130 | 750 | – | 184 | greater than twice that of either of the other two testosterone/chemical modifier complexes | –
C[C@]12CC[C@H]3[C@@H](CCC4=CC(=O)CC[C@@]43C)[C@@H]1CC[C@@H]2OC(=O)OCOC(=O)CCCCC[N+](C)(C)C [Code 3.2, testosterone-17β-[6-(N,N,N-trimethylammonio)hexanoyloxy-methyl]carbonate iodide salt] | 77 | 20 | 0.217 | – | 4.8 ± 0.6 | – | – | 615 | 406 | – | – | – | –
C[C@]12CC[C@H]3[C@@H](CCC4=CC(=O)CC[C@@]43C)[C@@H]1CC[C@@H]2OC(=O)Oc1ccc(CC[N+](C)(C)C)cc1 [Code 3.4, testosterone-17β-candicine carbonate, iodide salt] | 1 | 0.1 | 5.8 | – | 0 | – | – | 544 | 44.6 | – | – | – | –
COC(=O)[C@H](COC(=O)O[C@H]1CC[C@H]2[C@@H]3CCC4=CC(=O)CC[C@]4(C)[C@H]3CC[C@]12C)N(C)C [Code 3.6, testosterone-17β-(N,N-dimethyl-L-serine methyl ester) carbonate, hydrochloride salt] | 3.8 | 20 | – | – | 6.8 ± 0.3 | – | – | 224 | 157 | – | – | – | 0.75
C[C@]12CC[C@H]3[C@@H](CCC4=CC(=O)CC[C@@]43C)[C@@H]1CC[C@@H]2OC(=O)C=CC[N+](C)(C)C [Code 3.8, testosterone-17β-[(4-N,N,N-trimethylammonio) crotonate], chloride salt] | 0 | 21 | 122 | ≥ 10 | 9.4 ± 1.2 | – | – | 2290 | 583 | – | – | – | –
